Assay results reported in PubChem BioAssay AID651642 (Sanford-Burnham Center for Chemical Genomics, 2012).

Tests used:
H9c2 = experiment: protection of cardiomyocytes from stress damage, SAR follow-up, cell-based, panel, H9c2 and HL-1, H2O2, 2-deoxyglucose, ATP luminescence (AID 651642)
HL-1 = experiment: as above
[1] = H9c2/HL-1 cardiomyocyte 2-deoxyglucose damage, mean of runs, with 2-deoxyglucose, mean IC50 across panel
[2] = H9c2/HL-1 cardiomyocyte 2-deoxyglucose damage, run 1, with 2-deoxyglucose
[3] = H9c2/HL-1 cardiomyocyte 2-deoxyglucose damage, run 2, with 2-deoxyglucose
[4] = H9c2/HL-1 cardiomyocyte 2-deoxyglucose damage, run 3, with 2-deoxyglucose
[5] = H9c2/HL-1 cardiomyocyte 2-deoxyglucose damage, run 4, with 2-deoxyglucose
[6] = H9c2/HL-1 cardiomyocyte H2O2 oxidative damage, run 1, with H2O2
[7] = H9c2/HL-1 cardiomyocyte H2O2 oxidative damage, run 2, with H2O2
[8] = H9c2/HL-1 cardiomyocyte H2O2 oxidative damage, run 3, with H2O2
[9] = H9c2/HL-1 cardiomyocyte H2O2 oxidative damage, run 4, with H2O2
[10] = H9c2/HL-1 cardiomyocyte H2O2 oxidative damage, mean of runs, with H2O2, mean IC50 across panel

SMILES	IC50 (H9c2; [1]) [µM]	IC50 (H9c2; [2]) [µM]	IC50 (H9c2; [3]) [µM]	IC50 (H9c2; [4]) [µM]	IC50 (H9c2; [5]) [µM]	IC50 (H9c2; [6]) [µM]	IC50 (H9c2; [7]) [µM]	IC50 (H9c2; [8]) [µM]	IC50 (H9c2; [9]) [µM]	IC50 (HL-1; [1]) [µM]	IC50 (HL-1; [2]) [µM]	IC50 (HL-1; [3]) [µM]	IC50 (HL-1; [4]) [µM]	IC50 (HL-1; [5]) [µM]	IC50 (HL-1; [10]) [µM]	IC50 (HL-1; [6]) [µM]	IC50 (HL-1; [7]) [µM]	IC50 (HL-1; [8]) [µM]	IC50 (HL-1; [9]) [µM]	IC50 (H9c2; [10]) [µM]
COc1ccc2c(c1OC)C(=O)N1c3ccccc3C(=O)N(Cc3cccc(F)c3)C21 (stereo unspecified)	> 79	> 79	> 79	> 79	> 79	1.15	1.56	> 79	> 79	6.54	3.49	4.29	9.07	9.32	> 79	> 79	> 79	> 79	> 79	
COc1ccc2c(c1OC)C(=O)N1c3ccccc3C(=O)N(Cc3ccccc3Br)C21 (stereo unspecified)	> 79	> 79	> 79	> 79	> 79	> 79	2.03	> 79	> 79	13.4	2.54	2.85	13.9	34.4	> 79	> 79	> 79	> 79	> 79	
COC(=O)CNC(=O)c1cccc(NC(=O)c2cc(-c3cc(OC)c(OC)c(OC)c3)nc3ccccc23)c1	7.56	8.88	9.26	5.76	6.35	> 79	1.7	> 79	> 79	1.96	1.26	1.4	2.32	2.86	4.24	2.55	3.43	4.67	6.3	
COc1cc(-c2cc(C(=O)Nc3cccc(C(=O)Nc4ccccc4)c3)c3ccccc3n2)cc(OC)c1OC	4.71	5.69	5.71	3.53	3.93	1.55	1.96	0.724	0.895	1.19	0.708	0.802	1.43	1.8		> 79	1.54	1.68	2.15	1.28
COc1cc(-c2cc(C(=O)Nc3cccc(C(=O)N4CCOCC4)c3)c3ccccc3n2)cc(OC)c1OC		> 79	60.5	> 79	> 79	6.19	7.7	4.73	5.07	19	8.16	11.2	27.8	28.6	14.7	12.9	16.7	10.7	18.4	5.92
CCNC(=O)c1cccc(NC(=O)c2cc(-c3cc(OC)c(OC)c(OC)c3)nc3ccccc23)c1	22.2	21.3	22.2	22.4	22.8	4.85	4.86	2.88	3.41	9.33	5.11	6.24	13	13	6.69	3.81	11.5	3.71	7.74	4
COc1cc(-c2cc(C(=O)NCC(=O)Nc3cccc(C(C)=O)c3)c3cc(C)ccc3n2)cc(OC)c1OC		> 79	> 79	19.9	24.4	12.5	13.5	5.91	8.51	23	13.6	14.8	29.8	33.9	36.9	34.9	44.3	25.5	43.1	10.1
COc1cc(-c2cc(C(=O)Nc3cccc(C(=O)N(C)C)c3)c3ccccc3n2)cc(OC)c1OC	> 79	> 79	> 79	> 79	> 79	> 79	3.17	3.3	3.78	16.5	6.9	7.56	24.5	26.9	9.38	7.37	12.8	7.61	9.78	
COc1ccc2nc(-c3cc(OC)c(OC)c(OC)c3)cc(C(=O)NCC(=O)Nc3ccc(C(C)=O)cc3)c2c1	5.3	6.66	7.3	3.59	3.65	1.96	1.99	0.928	1.23	4.33	2.44	3	4.63	7.24	5.81	6.12	7.42	4.42	5.28	1.52
COc1cc(-c2cc(C(=O)Nc3cccc(C(C)=O)c3)c3ccc(Cl)cc3n2)cc(OC)c1OC	> 79	> 79	> 79	> 79	> 79	3.39	3.79	> 79	> 79	> 79	> 79	> 79	> 79	> 79	2.26	3.07	3.46	0.875	1.65	
CCOC(=O)c1cccc(NC(=O)c2cc(-c3cc(OC)c(OC)c(OC)c3)nc3ccc(OC)cc23)c1		> 79	24.6	35.6	44.4	2.7	2.92	2.05	2.56		2.77	2.79	> 79	> 79		4.24	4.51	> 79	2.3	2.56
COc1ccc2c(c1OC)C(=O)N1c3ccccc3C(=O)N(Cc3ccccc3C)C21 (stereo unspecified)	16.3	17	18.1	13.8	16.2	1.32	2.6	> 79	> 79	3.01	1.65	1.91	3.79	4.71	> 79	> 79	> 79	> 79	> 79	
COc1cc(-c2cc(C(=O)Nc3cccc(C(C)=O)c3)c3cc(C)ccc3n2)cc(OC)c1OC	> 79	> 79	> 79	> 79	> 79	4.03	8.34	3.55	4.29		4.82	5.03	> 79	> 79	4.11	4.85	5.7	2.78	3.12	5.05
COc1cc(-c2cc(C(=O)Nc3cccc(C(=O)NC4CC4)c3)c3ccccc3n2)cc(OC)c1OC	19.6	19.4	21	18.4	19.8	2	2.73	2.22	3.11	6.39	3.71	4.41	7.05	10.4	6.68	4.24	4.83	7.07	10.6	2.51
COc1cc(-c2cc(C(=O)NCC(=O)Nc3ccc(C(C)=O)cc3)c3cc(F)ccc3n2)cc(OC)c1OC	> 79	> 79	> 79	> 79	> 79	1.54	2.4	> 79	> 79		2.6	3.39	> 79	> 79	4.71	3.18	10.4	0.441	4.84	
COc1cc(-c2cc(C(=O)Nc3cccc(C(C)=O)c3)c3cc(Br)ccc3n2)cc(OC)c1OC	> 79	> 79	> 79	> 79	> 79	> 79	10.4	> 79	> 79	> 79	> 79	> 79	> 79	> 79		> 79	9.89	2.56	2.83	
COc1cccc(CNC(=O)CNC(=O)c2cc(-c3cc(OC)c(OC)c(OC)c3)nc3ccccc23)c1		38.6	40.8	> 79	> 79	5.74	7.73	4.38	5.17	15.2	9.87	10.8	17.7	22.6		> 79	13.1	6.25	7.97	5.76
